Like-named read-outs stand apart in the source and are kept apart here.
Key:
human sperm = experiment: Reduction of sperm motility (RSM) high-throughput phenotypic assay; type: cell-based; conditions: reduction of progressive sperm motility relative to control; for EC50: Homo sapiens
Protocol: Using our previously established phenotypic human sperm motility screening platform, we screened a large subset (62,621 compounds) of one of our in-house diversity libraries (National Phenotypic Screening Centre (NPSC) Diversity Set) (Figure A,B). Briefly, human sperm are collected, isolated from semen, distributed into 384-well plates with test compounds, time-lapse images of sperm movement are recorded using a high-content imager, and progressive motility parameters are calculated using custom data analysis software. Sperm motility is complicated, and the mechanisms underpinning its regulation are not fully understood. Progressive motility, which is a measurement of the movement of forward progression of sperm, is most closely linked to sperm quality, and the percentage of progressively motile sperm compared to control is therefore the parameter utilized during the work described in this paper. […]
We used an HTS screening platform to assess the motility of live human spermatozoa. The platform and its development are described in detail in Gruber et al. , and summarized below in brief. The platform was used to screen compound libraries specifically focusing on reduction in motility. Interesting compounds were examined in further detail as possible starting points for a medicinal chemistry program. The experimental design is illustrated in Figure .
Donors were local to the Dundee area, over the age of 18, and had no known fertility problems and normal sperm concentration, motility and semen characteristics according to WHO 2021 criteria. Special category personal data for donors, such as ethnic origin, was not recorded in accordance with ethical approval and UK GDPR. Samples were obtained by masturbation, after sexual abstinence of 2–5 days, and delivered to the research laboratory within one h of production. Samples were allowed to liquefy at 37 °C for 15–30 min prior to preparation by discontinuous density gradient centrifugation (DGC). […] A minimum of 3 prepared donor samples were routinely pooled to reduce donor-to-donor variability for primary screening assays. Pooled samples were incubated for 3 h at 37 °C under noncapacitating conditions.
In brief, screening batches of cells were transferred to a robotic platform (HighRes Biosolutions Inc.) and maintained during the screen at 37 °C at 5% CO2. Assay-ready 384-well plates containing compounds were prepared prior to the screen and filled with approximately 10,000 spermatozoa (20 μL) per well using a liquid handling system (MultiDrop Combi; ThermoFisher). These plates were incubated for 10 min prior to imaging. The HTS system utilized a Yokogawa CV7000 Cell Voyager high-throughput microscope to record time-lapse images from 2 positions in each well. An adaptation of a tracking algorithm, Trackpy v0.4.1 was utilized to track individual spermatozoa within each well and obtain kinematic parameters. Within the compound-test plates, DMSO was used as the vehicle control.
All steps were performed as previously described. , In summary, data from every compound well were normalized to those from in-plate DMSO controls (wells containing the same amount of DMSO as compound wells). Two positions were recorded in every well, and the average of those positions was used for calculating % of control (median value/DMSO median) × 100. Each plate contained 16 DMSO control wells. Median curvilinear velocity (VCL) was used as the primary readout for the NPSC Diversity Set screened at 6 μM, and percentage progressive motility (PM) was used for all other libraries screened. Hits from the primary screening were chosen based on the % change compared to the control. In these experiments, an RSM of ≥20% compared to negative controls (DMSO) was chosen as a cutoff for potential progression.
In a screening program of this scale, a significant number of compounds are likely to have a negative effect on sperm motility, but a number will show general toxicity. […]

HepG2 cells = experiment: HepG2 cytotoxicity assay (resazurin, 72 h); type: cell-based, human; conditions: Homo sapiens, HepG2, 72 h; read-out: HepG2 pEC50 (converted)
Excerpt: Our overarching aims for investigating our chemical series and deciding which ones had the potential for further progression were to achieve adequate potency in our motility assay, suitable solubility, and minimal cytotoxicity in HepG2 cells. This third point was often the most challenging, as multiple series had cytotoxicity in HepG2 cells. This observation is perhaps not surprising; many potential targets in sperm cells can also be found in somatic cells. Our cytotoxicity assay is run with an incubation time of 72 h, to give time for gross cytotoxic effects to become apparent.
Compound dilution curves were plated directly using a Labcyte Echo 550 acoustic dispenser (125 nL) in 384-well white clear-bottom plates (Greiner). HepG2 cells (ATCCHepG2 HB-8065) were cultured in minimum essential medium (supplemented with glutamax) with 10% FCS and plated (25 μL) using a WellMate dispenser ([…]) and incubated for 72 h. Doxorubicin was used as a positive control drug. Resazurin was then added to each well at a final concentration of 45 μM, and fluorescence was measured using a PHERAstar LS (BMG Labtech) after 4 h of further incubation (excitation of 528 nm and emission of 590 nm). Raw data were normalized to controls and expressed as % growth.
Figure S2: Concentration-response curves from high throughput HepG2 viability assay. Each compound was tested in duplicate and the curves of each replicate are shown. The reported values in the tables are an average of the 2 pEC50 values obtained. […]
determine 0% effect, positive control used to determine 100% effect).
Hit compounds 1a, 6b and 7a were repurchased from commercial suppliers including enamine and […]

[1] = 10 min, 10 min incubation, reported <X (neg. log of top concentration) if largest reduction <70%, read-out: RSM pEC50 10 mins (converted)
[2] = 3 h incubation, reported <X if largest reduction <70%, read-out: RSM pEC50 3 hrs (converted)
[3] = 6 h incubation, reported <X if largest reduction <70%, read-out: RSM pEC50 6 hrs (converted)

Compound | EC50 (human sperm; [1]) [µM] | EC50 (human sperm; [2]) [µM] | EC50 (human sperm; [3]) [µM] | RSM pEC50 10 mins (human sperm; 10 min incubation, reported <X (neg. log of top concentration) if largest reduction <70%) | RSM pEC50 3 hrs (human sperm; 3 h incubation, reported <X if largest reduction <70%) | RSM pEC50 6 hrs (human sperm; 6 h incubation, reported <X if largest reduction <70%) | EC50 (HepG2 cells) [µM]
2-(Phenoxymethyl)-N-(4-(pyridin-2-yl)thiazol-2-yl)benzamide [Compound 3a] |  |  |  | <4.5 | 5.0 | 5.3 | 
N#Cc1ccc(NC(=O)c2ccccc2)cc1Cl [Compound 1i] | > 20 |  |  |  |  |  | 39.8
NCCN(C(=O)c1ccc(F)cc1Cl)c1ccc(Cl)cc1 [Compound 1m] | > 31.6 | > 31.6 | > 31.6 |  |  |  | 63.1
O=C(Nc1nc(C2CC2)cs1)Nc1ccc(F)cc1F [Compound 3h] | > 31.6 | > 31.6 | > 31.6 |  |  |  | 63.1
CCN(CC)Cc1cc(Nc2ccnc3cc(Cl)ccc23)ccc1O [Compound 5a, 4-((7-Chloroquinolin-4-yl)amino)-2-((diethylamino)methyl)phenol, reference compound] | > 31.6 | > 31.6 | 0.501 |  |  |  | 20
Oc1ccc(Nc2ccnc3cc(Cl)ccc23)cc1CN1CCCC1 [Compound 5b] | > 31.6 | > 31.6 | 0.2 |  |  |  | 12.6
Oc1ccc(Nc2ccnc3cc(Cl)ccc23)cc1CN1CCNCC1 [Compound 5c] | > 31.6 | > 31.6 | 0.794 |  |  |  | 12.6
Fc1ccc(Nc2ccnc3cc(Cl)ccc23)cc1CN1CCCC1 [Compound 5h] | > 31.6 | > 31.6 | > 31.6 |  |  |  | 
O=C1COC2(CCN(Cc3ccc(F)cc3)CC2)CN1 [Compound 8a, 9-(4-Fluorobenzyl)-1-oxa-4,9-diazaspiro[5.5]undecan-3-one] | 12.6 | 2 | 0.794 |  |  |  | > 100
O=C1COC2(CCN(Cc3ccsc3)CC2)CN1 [Compound 8d] | > 31.6 | 2 | 1 |  |  |  | 
O=C1COC2(CCN(Cc3ccoc3)CC2)CN1 [Compound 8e] | > 31.6 | 3.16 | 1.26 |  |  |  | 
Cc1ccc(CN2CCC3(CC2)CNC(=O)CO3)cc1 [Compound 8g] | > 31.6 | > 31.6 | > 31.6 |  |  |  | 
CC(=O)N1CCC2(CCN(Cc3cccc(F)c3)CC2)CC1 [Compound 9b] | > 31.6 | > 31.6 | > 31.6 |  |  |  | 
Fc1cccc(CN2CCC3(CCNCC3)CC2)c1 [Compound 9d] | > 31.6 | > 31.6 | > 31.6 |  |  |  | 63.1

Second part, led by results:

EC50 (human sperm; [1]) [µM] | EC50 (human sperm; [2]) [µM] | EC50 (human sperm; [3]) [µM] | Compound | RSM pEC50 10 mins (human sperm; 10 min incubation, reported <X (neg. log of top concentration) if largest reduction <70%) | RSM pEC50 3 hrs (human sperm; 3 h incubation, reported <X if largest reduction <70%) | RSM pEC50 6 hrs (human sperm; 6 h incubation, reported <X if largest reduction <70%) | EC50 (HepG2 cells) [µM]
> 31.6 | > 31.6 | > 31.6 | O=C(Nc1nc(-c2ccccn2)co1)Nc1ccc(F)cc1F [Compound 3n] |  |  |  | > 100
> 31.6 | 5.01 | 1.58 | Cc1cc(C)nc(-n2nc(C)cc2Nc2ccccc2)n1 [Compound 6a, 1-(4,6-dimethylpyrimidin-2-yl)-3-methyl-N-phenyl-1H-pyrazol-5-amine] |  |  |  | 
15.8 | 1.26 | 0.501 | O=C1COC2(CCN(Cc3ccncc3)CC2)CN1 [Compound 8b] |  |  |  | 
> 31.6 | 6.31 | 1.58 | O=C1COC2(CCN(Cc3cccnc3)CC2)CN1 [Compound 8c] |  |  |  | 
> 31.6 | > 31.6 | 25.1 | O=C1COC2(CCN(Cc3ccco3)CC2)CN1 [Compound 8f] |  |  |  | 
> 31.6 | > 31.6 | > 31.6 | CN1CC2(CCN(Cc3ccc(F)cc3)CC2)OCC1=O [Compound 8h] |  |  |  | > 100
> 31.6 | 6.31 | 3.98 | NC(=O)N1CCC2(CCN(Cc3cccc(F)c3)CC2)CC1 [Compound 9a, 9-(3-Fluorobenzyl)-3,9-diazaspiro[5.5]undecane-3-carboxamide] |  |  |  | > 100
> 31.6 | > 31.6 | > 31.6 | CNC(=O)N1CCC2(CCN(Cc3cccc(F)c3)CC2)CC1 [Compound 9c] |  |  |  | 
> 31.6 | > 31.6 | > 31.6 | NC(=O)N1CCC2(CCN(Cc3ccc(F)cc3)CC2)CC1 [Compound 9e] |  |  |  | 
